Values joined by “and” are separate entries in the source; they are usually repeats but may differ in a detail not shown here. Equal entries are not always repeated.
Assays:
Assay in all cases: Cell assay (liposome/EV binding, flow cytometry);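 for liposome binding, fluorescence signal (replicates): AF647 fluorescence intensity from 0.1 mol% AF647–PEG45–DSPE in liposomes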
Format in all cases: cell-based
WT Siglec-6 CHO cells = biological target: T1, WT Siglec-6 CHO cells (Homo sapiens, UniProt O43699); details: for log10(MFI AF647) of GLL relative to log10(MFI AF647) of the same GLL against UT CHO cells (Fig. 2a): Sig-6 WT, 3 mol% ganglioside liposomes;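 for liposome binding, fluorescence signal (replicates): AF647 fluorescence intensity from 0.1 mol% AF647–PEG45–DSPE in liposomes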
T1 construct: expressed in transfected cells
Experimental: (§1) Stock lipids (DSPC, Cholesterol, PEG45–DSPE) solutions were prepared by solvating the lipids in chloroform. An appropriate volume of each lipid solution was transferred to a glass test tube to reach the desired mol% of the component. The chloroform was then removed under N2 gas to yield a lipid thin film. Once dry, 100 µL of DMSO was added to the lipid-containing test tube and then the functional lipids (ganglioside, AF647–PEG45–DSPE, Siglec ligand–PEG45–DSPE, pHrodo–PEG45–DSPE, NGL) was added from their respect DMSO stock solution. The lipid mixture was then stored at −80 °C until completely frozen at which point excess DMSO was removed via lyophilization. Dry lipids were then stored at −80 °C until they were extruded. Lipid suppliers can be found in Supplementary Table 4.
(§2) Dry lipids were then hydrated in 1 mL of PBS. The lipids were then sonicated in a bath sonicator in a cycle of 1 min on, 5 min off for a total of five cycles. Liposomes were then extruded using an Avanti mini extruder first using an 800 nm filter and then a 100 nm filter yielding liposomes that were 130 ± 35 nm (Supplementary Table 5) measured using a Malvern Panalytical Zetasizer Nano S. Liposomes were stored at 4 °C.
(§3) 200,000 cells/well were plated into a 96-well U-bottom microplate and centrifuged at 300 × g for 5 min. The cells were then resuspended in 50 µL of 50 µM liposome/50 µg/mL (protein concentration) of EV solution in DMEM F12 5% FBS and incubated at 37 °C for 30 min. Excess liposomes were then removed via centrifuged at 300 × g for 5 min followed by washing the cells with FACS solution. The cells were then resuspended in (1:250 V/V) anti-Siglec-flow buffer (1% V/V FBS, 500 µM, EDTA Hank’s Balanced Salt Solution pH 7.4), solution and left to rest on ice for 30 min. The cells were then centrifuged again at 300 × g for 5 min and the cells were resuspended in FACS buffer solution and were then ready for analysis by flow cytometry. Information regarding antibody clone, catalog number supplier, label isotype, and dilution can be found in Supplementary Table 6. The Siglec-positive cells were gated on for liposome-binding analysis (Supplementary Fig. 1b).
(§4) Flow cytometry measurements were collected on a 5-laser Fortessa X-20 (BD Bioscience). All the resulting data were analyzed using FlowJo (10.5.3) software (BD Biosciences).

Siglec-1 R116A CHO cells = biological target: T2, Siglec-1 R116A CHO cells (Homo sapiens, UniProt Q9BZZ2, R116A); details: Sig-1 R116A; 3 mol% ganglioside liposomes; replicates
T2 construct: expressed in transfected cells
Experimental: as §1, §2, §3, §4

CD22 WT CHO cells = biological target: T3, CD22 WT CHO cells (Homo sapiens, UniProt P20273); details: 3 mol% ganglioside liposomes, replicates
T3 construct: expressed in transfected cells
T3 sequence (P20273 20-847): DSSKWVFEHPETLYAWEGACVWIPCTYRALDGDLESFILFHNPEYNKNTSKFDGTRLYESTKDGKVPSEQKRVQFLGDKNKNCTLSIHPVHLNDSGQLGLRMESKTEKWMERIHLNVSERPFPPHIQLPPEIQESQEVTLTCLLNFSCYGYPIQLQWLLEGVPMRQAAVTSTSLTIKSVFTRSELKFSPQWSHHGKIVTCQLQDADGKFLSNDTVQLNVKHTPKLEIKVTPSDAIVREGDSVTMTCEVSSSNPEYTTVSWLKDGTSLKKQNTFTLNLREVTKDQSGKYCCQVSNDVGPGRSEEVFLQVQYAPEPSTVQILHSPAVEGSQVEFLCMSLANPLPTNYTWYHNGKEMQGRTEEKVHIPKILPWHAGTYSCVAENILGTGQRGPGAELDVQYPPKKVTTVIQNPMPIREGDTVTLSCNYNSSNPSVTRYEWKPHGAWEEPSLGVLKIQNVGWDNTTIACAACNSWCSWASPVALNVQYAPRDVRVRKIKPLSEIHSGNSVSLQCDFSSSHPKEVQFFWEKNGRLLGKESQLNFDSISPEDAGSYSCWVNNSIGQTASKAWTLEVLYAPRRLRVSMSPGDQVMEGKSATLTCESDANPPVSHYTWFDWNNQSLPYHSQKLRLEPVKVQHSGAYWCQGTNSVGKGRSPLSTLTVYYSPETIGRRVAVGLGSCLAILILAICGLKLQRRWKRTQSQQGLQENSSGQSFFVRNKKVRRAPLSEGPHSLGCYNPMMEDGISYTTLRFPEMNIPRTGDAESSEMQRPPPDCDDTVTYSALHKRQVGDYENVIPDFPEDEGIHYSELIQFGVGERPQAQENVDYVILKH
Experimental: as §1, §2, §3, §4

[1] = biological target: T4, Siglec-11 R120A CHO cells (Homo sapiens, UniProt Q96RL6, R132A); details: Sig-11 R120A; 3 mol% ganglioside liposomes; replicates
T4 construct: expressed in transfected cells
T4 sequence (Q96RL6 28-698 R132A): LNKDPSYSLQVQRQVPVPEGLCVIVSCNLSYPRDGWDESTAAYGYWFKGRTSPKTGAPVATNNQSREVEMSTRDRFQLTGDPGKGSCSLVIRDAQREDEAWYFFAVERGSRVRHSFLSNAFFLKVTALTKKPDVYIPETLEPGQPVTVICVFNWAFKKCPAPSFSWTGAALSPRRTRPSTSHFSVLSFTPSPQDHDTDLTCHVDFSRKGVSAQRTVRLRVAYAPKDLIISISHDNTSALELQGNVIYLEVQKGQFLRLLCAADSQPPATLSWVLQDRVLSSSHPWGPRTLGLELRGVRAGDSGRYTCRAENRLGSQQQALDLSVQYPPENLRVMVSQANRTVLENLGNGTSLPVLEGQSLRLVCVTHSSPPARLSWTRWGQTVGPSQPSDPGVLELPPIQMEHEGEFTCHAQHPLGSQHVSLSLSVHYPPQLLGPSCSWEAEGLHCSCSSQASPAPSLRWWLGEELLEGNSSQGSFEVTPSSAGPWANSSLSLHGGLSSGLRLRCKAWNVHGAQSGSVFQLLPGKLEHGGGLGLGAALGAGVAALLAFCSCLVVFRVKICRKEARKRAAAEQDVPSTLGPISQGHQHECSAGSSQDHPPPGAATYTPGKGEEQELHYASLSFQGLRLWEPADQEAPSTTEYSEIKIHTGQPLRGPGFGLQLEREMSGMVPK
Experimental: as §1, §2, §3, §4

Siglec-8 WT CHO cells = biological target: T5, Siglec-8 WT CHO cells (Homo sapiens, UniProt Q9NYZ4); details: Sig-8 WT; 3 mol% ganglioside liposomes; replicates
T5 construct: expressed in transfected cells
Experimental: as §1, §2, §3, §4

CD33 WT CHO cells = biological target: T6, CD33 WT CHO cells (Homo sapiens, UniProt P20138); details: 3 mol% ganglioside liposomes, replicates
T6 construct: expressed in transfected cells
Experimental: as §1, §2, §3, §4

T6 sequence (P20138 18-364): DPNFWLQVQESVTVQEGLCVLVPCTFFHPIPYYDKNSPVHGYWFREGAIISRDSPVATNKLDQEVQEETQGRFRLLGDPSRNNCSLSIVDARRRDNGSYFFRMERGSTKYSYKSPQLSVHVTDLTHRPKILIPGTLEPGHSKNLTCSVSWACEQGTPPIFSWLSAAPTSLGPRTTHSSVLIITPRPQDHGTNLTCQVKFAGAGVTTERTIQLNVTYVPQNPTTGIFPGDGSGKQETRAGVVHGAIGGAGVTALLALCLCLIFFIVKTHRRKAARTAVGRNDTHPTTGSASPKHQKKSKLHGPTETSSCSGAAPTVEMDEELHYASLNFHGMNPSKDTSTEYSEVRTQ
T5 sequence (Q9NYZ4 17-499): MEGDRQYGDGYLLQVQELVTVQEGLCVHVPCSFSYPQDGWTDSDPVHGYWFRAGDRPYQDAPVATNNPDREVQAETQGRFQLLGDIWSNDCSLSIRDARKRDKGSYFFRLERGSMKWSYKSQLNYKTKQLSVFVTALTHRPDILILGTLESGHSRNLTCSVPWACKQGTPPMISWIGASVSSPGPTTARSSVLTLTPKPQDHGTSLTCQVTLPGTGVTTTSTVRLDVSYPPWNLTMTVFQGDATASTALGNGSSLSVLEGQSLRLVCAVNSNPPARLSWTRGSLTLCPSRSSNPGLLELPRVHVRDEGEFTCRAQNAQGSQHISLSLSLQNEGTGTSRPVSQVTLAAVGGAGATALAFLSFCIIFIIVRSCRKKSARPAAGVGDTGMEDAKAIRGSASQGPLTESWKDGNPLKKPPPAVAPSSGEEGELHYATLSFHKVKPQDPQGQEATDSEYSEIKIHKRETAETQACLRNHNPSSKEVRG
T2 sequence (Q9BZZ2 20-1709 R116A): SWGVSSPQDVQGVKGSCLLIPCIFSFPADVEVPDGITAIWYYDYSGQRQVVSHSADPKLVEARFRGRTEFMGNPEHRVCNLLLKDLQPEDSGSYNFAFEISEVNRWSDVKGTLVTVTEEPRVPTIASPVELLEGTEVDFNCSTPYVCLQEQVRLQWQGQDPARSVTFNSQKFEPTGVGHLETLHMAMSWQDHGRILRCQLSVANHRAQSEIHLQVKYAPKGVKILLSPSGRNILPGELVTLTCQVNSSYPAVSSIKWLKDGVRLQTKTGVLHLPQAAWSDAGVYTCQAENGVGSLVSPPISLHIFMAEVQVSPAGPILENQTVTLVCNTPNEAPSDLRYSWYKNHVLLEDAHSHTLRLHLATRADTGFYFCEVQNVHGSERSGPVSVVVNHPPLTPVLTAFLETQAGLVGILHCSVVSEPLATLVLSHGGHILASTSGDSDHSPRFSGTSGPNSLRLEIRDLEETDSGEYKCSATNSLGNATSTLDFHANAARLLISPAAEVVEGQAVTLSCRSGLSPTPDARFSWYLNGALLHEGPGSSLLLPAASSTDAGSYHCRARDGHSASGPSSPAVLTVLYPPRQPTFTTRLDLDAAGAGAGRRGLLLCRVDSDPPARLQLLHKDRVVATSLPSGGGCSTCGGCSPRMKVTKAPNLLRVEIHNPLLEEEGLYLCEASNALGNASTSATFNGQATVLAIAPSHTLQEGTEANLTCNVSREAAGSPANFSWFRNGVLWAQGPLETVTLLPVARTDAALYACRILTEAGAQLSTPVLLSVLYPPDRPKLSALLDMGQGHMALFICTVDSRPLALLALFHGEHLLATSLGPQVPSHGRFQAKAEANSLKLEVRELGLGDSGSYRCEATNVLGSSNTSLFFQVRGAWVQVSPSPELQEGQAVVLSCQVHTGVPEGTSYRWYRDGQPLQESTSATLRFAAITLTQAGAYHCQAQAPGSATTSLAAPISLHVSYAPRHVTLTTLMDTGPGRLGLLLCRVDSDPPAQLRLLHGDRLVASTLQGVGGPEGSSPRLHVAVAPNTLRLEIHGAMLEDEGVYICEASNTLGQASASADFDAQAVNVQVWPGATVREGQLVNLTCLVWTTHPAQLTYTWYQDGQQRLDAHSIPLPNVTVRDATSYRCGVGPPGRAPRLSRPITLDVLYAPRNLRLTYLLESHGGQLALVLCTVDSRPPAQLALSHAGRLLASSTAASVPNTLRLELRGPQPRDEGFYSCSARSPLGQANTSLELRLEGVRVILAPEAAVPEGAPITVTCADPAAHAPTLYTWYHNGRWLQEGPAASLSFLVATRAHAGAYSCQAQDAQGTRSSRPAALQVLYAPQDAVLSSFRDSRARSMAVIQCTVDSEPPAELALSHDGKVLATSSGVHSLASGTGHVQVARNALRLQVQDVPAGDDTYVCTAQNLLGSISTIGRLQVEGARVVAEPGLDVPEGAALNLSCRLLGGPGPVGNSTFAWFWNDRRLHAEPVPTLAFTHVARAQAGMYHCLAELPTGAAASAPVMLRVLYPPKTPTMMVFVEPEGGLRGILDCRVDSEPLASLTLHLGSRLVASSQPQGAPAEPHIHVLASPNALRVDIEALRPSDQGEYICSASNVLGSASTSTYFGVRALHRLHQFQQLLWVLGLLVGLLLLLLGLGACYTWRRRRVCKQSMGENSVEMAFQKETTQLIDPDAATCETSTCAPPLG
T1 sequence (O43699 27-453): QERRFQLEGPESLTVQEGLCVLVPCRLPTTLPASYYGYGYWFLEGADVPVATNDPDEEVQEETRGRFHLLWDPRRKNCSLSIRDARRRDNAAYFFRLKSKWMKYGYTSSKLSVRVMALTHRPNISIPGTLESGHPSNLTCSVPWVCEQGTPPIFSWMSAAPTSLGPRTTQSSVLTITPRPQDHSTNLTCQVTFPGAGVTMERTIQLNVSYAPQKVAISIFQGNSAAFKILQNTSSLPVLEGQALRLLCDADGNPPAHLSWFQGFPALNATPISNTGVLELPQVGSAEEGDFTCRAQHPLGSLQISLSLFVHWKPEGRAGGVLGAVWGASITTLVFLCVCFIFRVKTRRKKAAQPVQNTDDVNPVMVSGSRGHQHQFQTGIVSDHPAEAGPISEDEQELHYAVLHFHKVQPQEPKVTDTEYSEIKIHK

Substance | Binding of liposomes to WT Siglec-6 CHO cells relative to liposomes formulated without a ligand (Fig. 3c) (WT Siglec-6 CHO cells; 3 mol% glycolipid, Cer = native ganglioside, Amide = amide-linked nGL, replicates, listed as GM1 Cer) | log10(MFI AF647) of GLL relative to log10(MFI AF647) of the same GLL against UT CHO cells (Fig. 2a) (WT Siglec-6 CHO cells; replicates) | GLL binding to Siglec-6 with increasing ganglioside content (in words) (WT Siglec-6 CHO cells; ganglioside titrated in GLLs) | liposome binding, fluorescence signal (replicates) (WT Siglec-6 CHO cells; sheet Figure S17, cells not given, three experiments, each with its own Naked control) | log10(MFI AF647) of GLL relative to log10(MFI AF647) of the same GLL against UT CHO cells (Fig. 2a) (Siglec-1 R116A CHO cells) | log10(MFI AF647) of GLL relative to log10(MFI AF647) of the same GLL against UT CHO cells (Fig. 2a) (CD22 WT CHO cells) | log10(MFI AF647) of GLL relative to log10(MFI AF647) of the same GLL against UT CHO cells (Fig. 2a) [1] | log10(MFI AF647) of GLL relative to log10(MFI AF647) of the same GLL against UT CHO cells (Fig. 2a) (Siglec-8 WT CHO cells) | log10(MFI AF647) of GLL relative to log10(MFI AF647) of the same GLL against UT CHO cells (Fig. 2a) (CD33 WT CHO cells)
GM1 | 10 and 9.9 and 11 and 10.2 | 0.96 and 0.93 and 0.94 (2×) | decreased above an optimal ganglioside content | 2111 and 2091 and 2310 and 2148 | -0.21 and -0.24 and -0.22 and -0.2 | -0.03 (2×) and -0.04 and -0.06 | 0.1 and 0.05 and 0.07 and 0.13 | -0.02 (3×) and 0.04 | -0.29 and -0.27 and -0.21 and -0.16
GM2 |  | 0.03 (2×) and 0.04 and 0.06 |  |  | -0.08 and -0.1 (2×) and -0.07 | 0.01 (3×) and 0 | -0.07 (2×) and -0.06 (2×) | -0.18 (2×) and -0.15 and -0.17 | -0.08 and -0.05 and -0.02 and 0
GD3 |  | 0.91 and 0.9 (2×) and 0.88 |  |  | -0.04 (2×) and -0.02 and 0.05 | 0.09 and 0.07 and 0.1 (2×) | -0.1 and -0.11 and -0.12 (2×) | -0.11 and -0.06 and -0.09 and -0.01 | -0.03 (2×) and -0.01 and 0

Reference: article PMC10122656, “Siglec-6 mediates the uptake of extracellular vesicles through a noncanonical glycolipid binding pocket” (Nature Communications, 2023)
